Data: US7638639B2, “Substituted pyrrolidine and related compounds” (Theravance, Inc., priority 2003, dated 2009)

Columns and labels:
[1] = target: T1, hM2 muscarinic receptor subtype (Homo sapiens, UniProt P08172); assay: Radioligand binding assay ([3H]-NMS displacement), hM2
T1 construct: expressed in transfected cells
T1 sequence (P08172 1-466): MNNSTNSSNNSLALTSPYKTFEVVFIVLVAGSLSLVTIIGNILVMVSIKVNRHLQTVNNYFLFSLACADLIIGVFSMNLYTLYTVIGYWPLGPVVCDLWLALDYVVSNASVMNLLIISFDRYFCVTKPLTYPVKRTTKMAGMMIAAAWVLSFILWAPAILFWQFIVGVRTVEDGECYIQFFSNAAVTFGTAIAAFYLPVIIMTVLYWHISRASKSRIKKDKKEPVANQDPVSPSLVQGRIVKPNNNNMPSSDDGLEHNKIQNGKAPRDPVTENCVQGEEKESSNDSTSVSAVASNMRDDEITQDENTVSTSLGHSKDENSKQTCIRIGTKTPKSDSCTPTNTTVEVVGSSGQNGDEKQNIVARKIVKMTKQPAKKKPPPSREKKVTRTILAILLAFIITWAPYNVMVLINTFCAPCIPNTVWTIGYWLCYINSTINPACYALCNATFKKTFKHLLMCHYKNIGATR
Method: (§1) A. Membrane Preparation from Cells Expressing hM1, hM2, hM3 and hM4 Muscarinic Receptor Subtypes
(§2) CHO (Chinese hamster ovary) cell lines stably expressing cloned human hM1, hM2, hM3 and hM4 muscarinic receptor subtypes, respectively, were grown to near confluency in medium consisting of HAM's F-12 supplemented with 10% FBS (Fetal Bovine Serum) and 250 μg/mL Geneticin. The cells were grown in a 5% CO2, 37° C. incubator and lifted with 2 mm EDTA in dPBS. Cells were collected by 5 minute centrifugation at 650×g, and cell pellets were either stored frozen at −80° C. or membranes were prepared immediately. For membrane preparation, cell pellets were resuspended in lysis buffer and homogenized with a Polytron PT-2100 tissue disrupter (Kinematica AG; 20 seconds×2 bursts). Crude membranes were centrifuged at 40,000×g for 15 minutes at 4° C. The membrane pellet was then resuspended with resuspension buffer and homogenized again with the Polytron tissue disrupter. The protein concentration of the membrane suspension was determined by the method described in Lowry, O. et al., 1951, […]: 193, 265. All membranes were stored frozen in aliquots at −80° C. or used immediately. Aliquots of prepared hM5 receptor membranes were purchased directly from Perkin Elmer and stored at −80° C. until use.
(§3) B. Radioligand Binding Assay on Muscarinic Receptor Subtypes hM1, hM2, hM3, hM4 and hM5
(§4) Radioligand binding assays were performed in 96-well microtiter plates in a total assay volume of 100 μL. CHO cell membranes stably expressing either the hM1, hM2, hM3, hM4 or hM5 muscarinic subtype were diluted in assay buffer to the following specific target protein concentrations (μg/well): 10 μg for hM1, 10-15 μg for hM2, 10-20 μg for hM3, 10-20 μg for hM4, and 10-12 μg for hM5. The membranes were briefly homogenized using a Polytron tissue disruptor (10 seconds) prior to assay plate addition. Saturation binding studies for determining KD values of the radioligand were performed using L-[N-methyl-3H]scopolamine methyl chloride ([^3H]-NMS) (TRK666, 84.0 Ci/mmol, Amersham Pharmacia Biotech, Buckinghamshire, England) at concentrations ranging from 0.001 nM to 20 nM. Displacement assays for determination of Ki values of test compounds were performed with [^3H]-NMS at 1 nM and eleven different test compound concentrations. The test compounds were initially dissolved to a concentration of 400 μM in dilution buffer and then serially diluted 5× with dilution buffer to final concentrations ranging from […] to […]. The addition order and volumes to the assay plates were as follows: 25 μL radioligand, 25 μL diluted test compound, and 50 μL membranes. Assay plates were incubated for 60 minutes at 37° C. Binding reactions were terminated by rapid filtration over GF/B glass fiber filter plates (PerkinElmer Inc., Wellesley, Mass.) pre-treated in 1% BSA. Filter plates were rinsed three times with wash buffer (10 mm HEPES) to remove unbound radioactivity. Plates were then air dried, and 50 μL Microscint-20 liquid scintillation fluid (PerkinElmer Inc., Wellesley, Mass.) was added to each well. The plates were then counted in a PerkinElmer Topcount liquid scintillation counter (PerkinElmer Inc., Wellesley, Mass.). Binding data were analyzed by nonlinear regression analysis with the GraphPad Prism Software package (GraphPad Software, Inc., San Diego, Calif.) using the one-site competition model. Ki values for test compounds were calculated from observed IC50 values and the KD value of the radioligand using the Cheng-Prusoff equation (Cheng Y; Prusoff W H. (1973) Biochemical Pharmacology, 22(23):3099-108). Ki values were converted to pKi values to determine the geometric mean and 95% confidence intervals. These summary statistics were then converted back to Ki values for data reporting.

[2] = target: T2, hM3 muscarinic receptor subtype (Homo sapiens, UniProt P20309); assay: Radioligand binding assay ([3H]-NMS displacement), hM3
T2 construct: expressed in transfected cells
T2 sequence (P20309 whole entry): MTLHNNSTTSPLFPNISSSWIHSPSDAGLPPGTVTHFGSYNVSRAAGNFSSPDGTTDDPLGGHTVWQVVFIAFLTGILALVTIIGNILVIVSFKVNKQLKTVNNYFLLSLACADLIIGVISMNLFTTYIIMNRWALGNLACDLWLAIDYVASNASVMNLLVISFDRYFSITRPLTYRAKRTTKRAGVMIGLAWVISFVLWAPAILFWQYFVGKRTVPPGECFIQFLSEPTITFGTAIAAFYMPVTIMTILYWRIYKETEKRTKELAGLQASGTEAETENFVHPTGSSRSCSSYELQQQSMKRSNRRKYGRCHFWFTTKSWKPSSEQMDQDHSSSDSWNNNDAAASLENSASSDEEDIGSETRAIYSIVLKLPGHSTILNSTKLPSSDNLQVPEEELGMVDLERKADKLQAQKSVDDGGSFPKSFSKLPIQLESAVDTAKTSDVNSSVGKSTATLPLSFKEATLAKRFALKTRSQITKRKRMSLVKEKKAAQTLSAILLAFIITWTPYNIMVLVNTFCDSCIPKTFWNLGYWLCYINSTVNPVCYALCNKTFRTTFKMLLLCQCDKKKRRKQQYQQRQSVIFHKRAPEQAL
Method: as §1, §2, §3, §4

Ki ([1]; CHO cell membranes, [3H]-NMS 1 nM, read-out: hM2 binding affinity (Ki)): 3.8 nM
Δ hM2: change in binding affinity relative to compound of the invention ([1]; ratio of hM2 Ki values): ×4.7
Ki ([2]; CHO cell membranes, [3H]-NMS 1 nM, read-out: hM3 binding affinity (Ki)): 0.96 nM
Δ hM3: change in binding affinity relative to compound of the invention ([2]; ratio of hM3 Ki values): ×2.6
SMILES: CNCCCCCCCCN1CC[C@@H](C(C(N)=O)(c2ccccc2)c2ccccc2)C1 [Example 1, 2-[(S)-1-(8-Methylaminooctyl)pyrrolidin-3-yl]-2,2-diphenylacetamide]
